Assay results from patent publication US20080293076A1, “Method to improve barrier function of cell-cell junctions” (UMC Utrecht Holding B.V., priority 2007, published 2008).

System: HUVEC
Assay: Endothelial permeability assay: electrical resistance across HUVEC monolayer (ECIS)
Type: cell-based, human
Conditions: for decreased resistance in PDZ-GEF2-depleted cells: PDZ-GEF2 siRNA
Protocol: FIG. 2: PDZ-GEF2 knockdown in HUVECs leads to immature adherens junction and decreases endothelial resistance. Panel A: PDZ-GEF2 knockdown leads to immature VE-cadherin-based junctions in endothelial cells. HUVEC were transfected twice with scrambled, Epac1 or PDZ-GEFs siRNA and replated on glass coverslips. The cells were fixed when they formed a monolayer and immunostained with anti-VE-cadherin antibody. Panel B: Basal electrical resistance across HUVEC monolayers. Cells were treated as described in A and replated on electrodes. ECIS was measured continuously for 15 hours and the values reported are the final time points. […] The values reported correspond to the endothelial resistance measured 90 minutes after adding 007 to the culture media. * p<0.03 control mock vs 007; p<0.001 PDZ-GEF2.285 mock vs 007.
293T and A549 cells were transfected using FuGENE6 reagent for 48 hours (Roche Diagnostics Corporation). For siRNA, A549 cells and HUVEC were transfected using oligofectamine (Invitrogen) for 24 to 48 hours according to the manufacturer's instructions. In the case of the HUVEC, transfection was repeated after 24 hours. Samples were analyzed 48 hours after the second round of transfection. Oligos sequences (Dharmacon): PDZ-GEF2 (285: GGATCCAACTTATATAGAA) (SEQ ID NO:______); (289: GACACGGATTGTATTATTA) (SEQ ID NO:______); *Epac1 (GCACCTA CGTCTGCAACAA) (SEQ ID NO:______) and (CCATCATCCTGCGAGAAGA) (SEQ ID NO:______). 8-pCPT-2′O-Me-cAMP/8-pCPT -2′-OMe-cAMP (Biolog) was used at a final concentration of 100 μM. Quantification of the PDZ-GEF2 knockdown was performed using Scion Image (Scion Corporation).
To assess endothelial permeability, we measured electrical resistance continuously across endothelial cell monolayer using the methodology known as “Electric Cell-Substrate Impedance Sensing” (ECIS).^[21] Briefly, HUVEC were grown to confluence on small gold electrodes and ECIS was subsequently monitored for up to 15 hours. Data was analyzed using the Applied Biophysics software.

[1] = HUVEC, 100 μM, 30-minute stimulation

## CO[C@@H]1[C@@H]2OP(=O)(O)OC[C@H]2O[C@H]1n1c(Sc2ccc(Cl)cc2)nc2c(N)ncnc21 [8-pCPT-2′-OMe-cAMP]
90 minutes after adding 007, PDZ-GEF2.285, p<0.001 mock vs 007
  endothelial resistance in PDZ-GEF2 knockdown HUVEC: rescues the PDZ-GEF2 knockdown phenotype
90 minutes after adding 007 to the culture media, p<0.03 mock vs 007
  endothelial resistance in control HUVEC: increases endothelial resistance
HUVEC transfected with Epac1 siRNA, 100 μM
  electrical resistance in Epac1 siRNA cells: minimal effect
[1]
  electrical resistance in scrambled siRNA cells: increased resistance
  decreased resistance in PDZ-GEF2-depleted cells: completely rescued
HUVEC, 100 μM, 30-minute stimulation, listed as 8-pCPT-2′OMe-cAMP
  decreased resistance in PDZ-GEF2-depleted cells: rescued
